Source: publication PMC9436958, “The synthesis of novel thioderivative chalcones and their influence on NF-κB, STAT3 and NRF2 signaling pathways in colorectal cancer cells” (Scientific Reports, 2022)
Where two headings read alike, the source gives them in different places.

Columns and labels:
Nrf2 signaling pathway = system: Nrf2 signaling pathway; parameters: method as in PMID 23085367, PMID 34120541; settings: cited from earlier work
NF-κB = system: NF-κB; parameters: method as in PMID 34120541; settings: PANC-1 pancreatic cancer cells; cited from earlier work
COX-2 [1] = system: COX-2; parameters: method as in PMID 34120541; settings: PANC-1 pancreatic cancer cells; cited from earlier work
NF-κB p65 = assay: Western blot, NF-κB p65 protein level; assay type: cell-based; settings: BAY 11-7082 5 µM; both tested cell lines
Method: (§1) Cytosolic and nuclear extracts were prepared using a Nuclear/Cytosol Fractionation Kit (BioVision Research, USA). Cytosolic extracts (for NF-κBp65, NF-κBp50, COX-2, iNOS, STAT3, c-Myc, Bcl-xl, Nrf2, SOD, GSTP, EGFR, Akt, p-Akt, Keap1, IKKα/β and β-actin) or nuclear extracts (for NF-κBp65, NF-κBp50, STAT3, p-STAT3, Nrf2, p-Nrf2 and lamin) were separated on 7.5%, 10% or 12% SDS–PAGE slab gels. Then, the proteins were transferred to a nitrocellulose Immobilon-P membrane. After blocking for 2 h with 10% skimmed milk, proteins were incubated with primary antibodies against NF-κBp65, NF-κBp50, COX-2, iNOS, STAT3, p-STAT3, c-Myc, Bcl-xl, Nrf2, p-Nrf2, SOD, GSTP, EGFR, Akt, p-Akt, Keap1, IKKα/β, β-actin, and lamin. Alkaline phosphatase (AP)-labeled anti-rabbit IgG, anti-goat IgG, and anti-mouse IgG secondary antibodies (Bio-Rad Laboratories, USA), as well as horseradish peroxidase (HRP)-conjugated anti-mouse IgG (Boster Bio, USA) secondary antibodies were used in the staining reaction. Bands were visualized by the AP Conjugate Substrate Kit NBT/BCIP or the chemiluminescent HRP substrate of the Clarity ECL Kit (Bio–Rad Laboratories, USA). The amount of immunoreactive product in each lane was determined using a ChemiDoc Imaging System (Bio–Rad Laboratories, USA). Values were calculated as relative absorbance units (RQ) per mg of protein and expressed as a percentage of the control.

HCT116 cells [2] = assay: Cell cycle distribution, PI staining, flow cytometry, HCT116; assay type: cell-based; settings: 48 h, BAY 11-7082 5 µM, 4 and 5 in higher (doubled) concentrations
Method: (§2) The analysis of the cell cycle distribution was performed by propidium iodide (PI) staining. The addition of RNase A improved the specificity of PI binding to DNA. The Muse Cell Cycle Kit (Luminex, USA) and flow cytometric detection were performed with the Muse Cell Analyzer (Merck, Germany), according to the manufacturer’s protocol. Briefly, cells were seeded (2 × 10^5 cells per well) in 6-well plates and on the following day the analyzed compounds were added. Topotecan (Sigma-Aldrich, USA) was used as a positive control of cell cycle arrest. After 48 h cells were collected by trypsinization, fixed in cold 70% ethanol and stored at –20 °C. Then, fixed cells were collected and stained with PI, subjected to 30 min incubation at room temperature in the dark and analyzed by flow cytometry. Three independent experiments were performed. Data were analyzed by Muse 1.5 Analysis Software (Merck, Germany).

DLD-1 cells [3] = assay: Apoptosis, Annexin V / 7-AAD flow cytometry, DLD-1; assay type: cell-based; settings: 48 h, mainly early and total apoptotic populations enriched
Method: (§3) Apoptosis was assessed by the detection of phosphatidylserine externalization based on Annexin V staining combined with fluorescent DNA intercalator 7-Aminoactinomycin D (7-AAD) what allowed for the discrimination between early and late apoptotic cells. The analysis was performed by flow cytometry using the Muse Annexin V & Dead Cell Kit (Luminex, USA) and the Muse Cell Analyzer (Merck, Germany), according to the manufacturer’s protocol. Cells were seeded (2 × 10^5 cells per well) in six-well plates and on the following day the analyzed compounds were added. Topotecan (Sigma-Aldrich, USA) was used as a positive control of apoptosis induction. After 48 h cells were collected by trypsinization, stained and after 20 min incubation at room temperature in the dark analyzed by flow cytometry. Three independent experiments were performed. Data were analyzed by Muse 1.5 Analysis Software (Merck, Germany).

DLD-1 cells [4] = assay: Wound healing assay (cell migration); assay type: cell-based; settings: 24 h, 4 at standard concentration (1 μM), BAY 11-7082 5 µM
Method: Cell migration was assessed by the wound healing assay. DLD-1 cells were seeded into 24-well plates (5 × 10^5 cells per well) and were grown overnight to reach confluency. A scratch was performed using a 10 μl tip, wells were rinsed twice with PBS buffer to remove detached cells, and fresh medium with reduced FBS concentration (0.5%) containing the tested compounds was added. Subsequently, representative microscopic photographs of scratch areas were taken by JuLI FL microscope (NanoEntek, South Korea) direct after the addition of compounds and after 24 h. Area covered by cells (%) was assessed using JuLI FL software and the difference in the coverage of the growth area by DLD-1 cells between 0 and 24 h time points was calculated for each well. The experiment was repeated three times. The relative effect of the tested compounds on cell migration was calculated by comparing the difference in cell coverage area between compound-treated cells and DMSO-vehicle control (tested compound [area 24 h − area 0 h] / DMSO-vehicle control [area 24 h − area 0 h]).

DLD-1 cells [5] = assay: Cell cycle distribution, PI staining, flow cytometry, DLD-1; assay type: cell-based; settings: 48 h, BAY 11-7082 5 µM, 5 in higher (doubled) concentration
Method: as §2

HCT116 cells [6] = assay: Apoptosis, Annexin V / 7-AAD flow cytometry, HCT116; assay type: cell-based; settings: 48 h, increase of early, late and total apoptosis
Method: as §3

NF-κB p50 = assay: Western blot, NF-κB p50 protein level; assay type: cell-based; settings: BAY 11-7082 5 µM; both tested cell lines
Method: as §1

COX-2 [7] = assay: COX-2 expression (qRT-PCR mRNA, Western blot protein); assay type: cell-based; settings: BAY 11-7082 5 µM; both tested cell lines
Method: as §1
Total RNA from cells was isolated with the GeneMatrix Universal DNA/RNA/Protein Purification Kit (EurX, Poland). For the qRT-PCR analyses, the Maxima SYBR Green I/ROX qPCR Master Mix (2×) (Thermo Fisher Scientific, USA) and the thermal cycler LightCycler (Roche, Germany) were used. The protocol started with 5 min of enzyme activation at 95 °C, followed by 40–50 cycles at 95 °C for 15 s, 56 °C for 20 s, 72 °C for 40 s, and final elongation at 72 °C for 5 min. Melting curve analysis was used for amplicon verification. The expression levels of TATA-box-binding protein (TBP) and porphobilinogen deaminase (PBGD) were used to normalize the data. The Pfaffl comparative method was used to calculate fold change. Primers were designed using Beacon Designer software (the sequences of primers used to analyze genes are listed in Table 2 of the supplementary materials).

Row | SMILES | activation of the Nrf2 signaling pathway (Nrf2 signaling pathway; HepG2 hepatoma cells) | activation of the Nrf2 signaling pathway (Nrf2 signaling pathway; PANC-1 pancreatic cancer cells) | activation of NF-κB (NF-κB) | binding of both NF-κB subunits to DNA (NF-κB) | expression of COX-2 (COX-2 [1]) | level of NF-κBp65, compared with the studied chalcones (NF-κB p65) | cell cycle distribution (in words) (HCT116 cells [2]) | induction of apoptosis (DLD-1 cells [3]) | reduction of cell migration rate (wound healing) vs DMSO-treated cells (DLD-1 cells [4]) | cell cycle distribution (in words) (DLD-1 cells [5]) | induction of apoptosis (HCT116 cells [6]) | level of NF-κBp50, compared with the studied chalcones (NF-κB p50) | level of COX-2, compared with the studied chalcones (COX-2 [7])
1 | COc1cc(O)c(CC=C(C)C)c(O)c1C(=O)/C=C/c1ccc(O)cc1 [xanthohumol] | significantly increased activation | significantly increased activation | decreased the activation of NF-κB | decreased | decreased | – | – | – | – | – | – | – | –
2 | Cc1ccc(S(=O)(=O)/C=C/C#N)cc1 [BAY 11-7082, reference compound] | – | – | – | – | – | more potent inhibition | decreased G1/G0 phases; increased S and G2/M phases | able to induce apoptosis | at the same level as DMSO-treated cells | decrease of G1/G0 cell cycle phase | able to induce apoptosis | more potent inhibition | more potent inhibition
